Laboratory results as given in US8003649B2 (AstraZeneca AB, priority 2007, dated 2011).

Legend:
[1] = molecular target: T1, rat GST-tagged AR-LBD (Rattus norvegicus, UniProt P15207); assay: LanthaScreen TR-FRET AR Binding Assay; settings: n = 2; 12-point concentration response up to 100 μM
T1 construct: purchased Invitrogen
T1 sequence (P15207 651-882 limits assumed): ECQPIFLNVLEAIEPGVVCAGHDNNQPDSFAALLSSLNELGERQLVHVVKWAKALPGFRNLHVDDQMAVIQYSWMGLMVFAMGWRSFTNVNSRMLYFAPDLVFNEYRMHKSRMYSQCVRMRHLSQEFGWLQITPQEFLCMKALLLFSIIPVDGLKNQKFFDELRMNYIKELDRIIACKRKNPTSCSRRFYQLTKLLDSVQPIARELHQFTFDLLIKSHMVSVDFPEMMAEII
Procedure: The ability of compounds to bind to isolated Androgen Receptor Ligand binding domain (AR-LBD) was assessed in competition assays using either a Fluorescence Polarisation (FP) or a LanthaScreen™ Time-Resolved Fluorescence Resonance Energy Transfer (TR-FRET) detection end-point.
For LanthaScreen™ TR-FRET, a suitable fluorophore (Product code PV4294) and rat GST-tagged AR-LBD were purchased from Invitrogen and used to measure compound binding. The assay principle is that AR-LBD is added to a fluorescent ligand to form a receptor/fluorophore complex. A terbium-labelled anti-GST antibody is used to indirectly label the receptor by binding to a GST tag, and competitive binding is detected by a test compounds' ability to displace the fluorescent ligand resulting in a loss of TR-FRET signal between the Tb-anti-GST antibody and the tracer. The assay was performed as follows with all reagent additions carried out using the Thermo Scientific Matrix PlateMate:— • 1. […]
Compounds were dosed directly from a compound source microplate containing serially diluted compound (4 wells containing 10 mM, 0.1 mM, 1 μM and 10 nM final compound respectively) to an assay microplate using the Labcyte Echo 550. […] Competitive AR binding was expressed as an IC50 value. This was determined by calculation of the concentration of compound that was required to give a 50% reduction in tracer compound binding to AR-LBD.

[2] = molecular target: T2, Androgen Receptor (AR) (Homo sapiens, UniProt P10275, T878A); assay: LNCaP Androgen Receptor Down-regulation Cell Assay (immunofluorescence end point); assay type: cell-based; settings: LNCaP prostate carcinoma cells, compound incubation 20-22 hours, 50% reduction of the AR signal; read-out: Androgen Receptor Down-regulation Assay (a) IC50/μM
T2 construct: cell based immuno-fluorescence assay using the LNCaP prostate epithelial cell line; endogenous in cells; host or cells: LNCaP clone FGC (ATCC CRL-1740)
T2 sequence (P10275 1-920 T878A): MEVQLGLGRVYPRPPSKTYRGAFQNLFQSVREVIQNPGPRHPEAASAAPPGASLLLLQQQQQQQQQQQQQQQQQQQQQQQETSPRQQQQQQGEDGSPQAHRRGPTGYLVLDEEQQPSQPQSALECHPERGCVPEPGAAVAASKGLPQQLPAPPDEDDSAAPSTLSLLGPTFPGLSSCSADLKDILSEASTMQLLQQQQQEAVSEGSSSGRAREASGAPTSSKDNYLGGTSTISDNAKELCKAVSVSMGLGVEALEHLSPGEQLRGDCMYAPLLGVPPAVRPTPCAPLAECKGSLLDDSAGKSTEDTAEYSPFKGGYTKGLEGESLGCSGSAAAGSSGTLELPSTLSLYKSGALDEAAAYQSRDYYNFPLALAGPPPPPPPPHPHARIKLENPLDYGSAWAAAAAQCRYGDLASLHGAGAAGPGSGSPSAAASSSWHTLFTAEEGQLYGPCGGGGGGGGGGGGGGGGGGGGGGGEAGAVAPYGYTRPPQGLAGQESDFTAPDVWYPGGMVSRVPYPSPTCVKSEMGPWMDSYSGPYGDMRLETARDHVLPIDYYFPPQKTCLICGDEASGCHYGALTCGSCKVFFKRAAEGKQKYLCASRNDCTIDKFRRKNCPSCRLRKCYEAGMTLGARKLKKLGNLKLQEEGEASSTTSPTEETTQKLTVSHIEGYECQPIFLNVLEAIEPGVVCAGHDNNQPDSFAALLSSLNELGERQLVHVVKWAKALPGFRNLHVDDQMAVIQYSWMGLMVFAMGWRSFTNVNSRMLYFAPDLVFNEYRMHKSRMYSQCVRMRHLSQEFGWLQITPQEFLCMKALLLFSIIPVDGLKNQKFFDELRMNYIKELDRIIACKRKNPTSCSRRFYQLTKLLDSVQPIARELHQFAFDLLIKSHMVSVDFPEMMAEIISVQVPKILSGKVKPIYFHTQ
Outline: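 LNCaP cells in medium with 5% charcoal-stripped FBS were plated overnight, then treated with a compound dilution series for 20-22 h at 37° C. After fixation, permeabilisation and immunostaining, AR-associated green fluorescence was quantified by laser-scanning microplate cytometry; AR down-regulation expressed as IC50 from fitted dose-response curves.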

Structure (SMILES)	IC50 [1]	DC50 [2]
OC1(c2cccnc2)CCN(c2ccc3nnc(C(F)(F)F)n3n2)CC1 [Example 511, 4-pyridin-3-yl-1-[3-(trifluoromethyl)[1,2,4]triazolo[4,3-b]pyridazin-6-yl]piperidin-4-ol]	> 100 µM	–
Cn1nccc1CCOc1ccc(C2CCN(c3ccc4nnc(C(F)(F)F)n4n3)CC2)cc1 [Example 513, 6-[4-[4-[2-(1-methyl-1H-pyrazol-5-yl)ethoxy]phenyl]piperidin-1-yl]-3-(trifluoromethyl)[1,2,4]triazolo[4,3-b]pyridazine]	1.3 µM	0.24 µM
